# Measured values taken from PubChem BioAssay (NCI).
#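 At the GI50, growth is halved. TGI marks complete inhibition of growth.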
# Tests used:
# Assay in all cases: DTP human tumour cell line panel, 384-well format
# [1] = system: HT29 colon
# [2] = system: K-562 leukemia
# [3] = system: SF-268 CNS
# [4] = system: KM12 colon
# [5] = system: HS 578T breast
# [6] = system: SNB-19 CNS
# [7] = system: HCC-2998 colon
# [8] = system: U251 glioblastoma
# [9] = system: TK-10 renal
# [10] = system: OVCAR-4 ovarian
# [11] = system: M14 melanoma
# [12] = system: MDA-MB-435 melanoma
# [13] = system: SK-MEL-5 melanoma
# [14] = system: COLO 205 colon
# [15] = system: UO-31 renal
# [16] = system: A498 renal
# [17] = system: SNB-75 CNS
# [18] = system: HCT-116 colon
# [19] = system: T-47D breast
# [20] = system: NCI-H23 lung
# [21] = system: EKVX NSCLC
# [22] = system: SF-539 CNS
# [23] = system: MALME-3M melanoma
# [24] = system: SW-620 colon
# [25] = system: HCT-15 colon
# [26] = system: NCI-H522 lung
# [27] = system: A549 NSCLC
# [28] = system: ACHN renal
# [29] = system: OVCAR-5 ovarian
# [30] = system: NCI-H460 NSCLC
# [31] = system: BT-549 breast
# [32] = system: SK-OV-3 ovarian
# [33] = system: SK-MEL-28 melanoma
# [34] = system: UACC-257 melanoma
# [35] = system: NCI/ADR-RES ovarian
# [36] = system: PC-3 prostate
# [37] = system: OVCAR-3 ovarian
# [38] = system: 786-0 renal
# [39] = system: CAKI-1 renal
# [40] = system: SF-295 CNS
# [41] = system: MDA-MB-231 breast
# [42] = system: MCF7 breast
# [43] = system: HOP-62 NSCLC
# [44] = system: OVCAR-8 ovarian
# [45] = system: LOX IMVI melanoma
# [46] = system: RPMI-8226 leukemia
# [47] = system: MOLT-4 leukemia
# [48] = system: HL-60(TB) leukemia
# [49] = system: DU-145 prostate
# [50] = system: HOP-92 NSCLC
# [51] = system: CCRF-CEM leukemia
# [52] = system: SN12C renal
# [53] = system: MDA-MB-468 breast
# [54] = system: RXF 393 renal
# [55] = system: IGROV1 ovarian
# [56] = system: NCI-H322M lung
# [57] = system: NCI-H226 lung
# [58] = system: UACC-62 melanoma
structure (smiles),measurement,setting,value
CC1=C2C[C@H]3[C@@H](CC[C@@H]4CC(NS(C)(=O)=O)CC[C@@]43C)[C@@H]2CC[C@@]2(C1)O[C@@H]1C[C@H](C)CN[C@H]1[C@H]2C (stereo partly specified),GI50,[1],1.9 µM
same,TGI,[1],3.55 µM
same,GI50,[2],1.83 µM
same,TGI,[2],3.23 µM
same,GI50,[3],3.22 µM
same,TGI,[3],9.73 µM
same,GI50,[4],8.44 µM
same,TGI,[4],20.6 µM
same,GI50,[5],10.8 µM
same,TGI,[5],22.7 µM
same,GI50,[6],5.22 µM
same,TGI,[6],16.4 µM
same,GI50,[7],3.47 µM
same,TGI,[7],9.91 µM
same,GI50,[8],4.31 µM
same,TGI,[8],14.2 µM
same,GI50,[9],2.75 µM
same,TGI,[9],7.38 µM
same,GI50,[10],5.29 µM
same,TGI,[10],14.8 µM
same,GI50,[11],2.49 µM
same,TGI,[11],5.93 µM
same,GI50,[12],12.4 µM
same,TGI,[12],25 µM
same,GI50,[13],1.72 µM
same,TGI,[13],3.12 µM
same,GI50,[14],2.46 µM
same,TGI,[14],5.34 µM
same,GI50,[15],3.9 µM
same,TGI,[15],13.7 µM
same,GI50,[16],2.99 µM
same,TGI,[16],7.76 µM
same,GI50,[17],3.82 µM
same,TGI,[17],15 µM
same,GI50,[18],3.83 µM
same,TGI,[18],12.7 µM
same,GI50,[19],2.12 µM
same,TGI,[19],4.28 µM
same,GI50,[20],14.9 µM
same,TGI,[20],28.2 µM
same,GI50,[21],3.44 µM
same,TGI,[21],8.77 µM
same,GI50,[22],5.02 µM
same,TGI,[22],15.9 µM
same,GI50,[23],1.88 µM
same,TGI,[23],3.32 µM
same,GI50,[24],13.8 µM
same,TGI,[24],26.8 µM
same,GI50,[25],3.89 µM
same,TGI,[25],13.6 µM
same,GI50,[26],3.46 µM
same,TGI,[26],8.3 µM
same,GI50,[27],4 µM
same,TGI,[27],14.2 µM
same,GI50,[28],2.62 µM
same,TGI,[28],6.64 µM
same,GI50,[29],13.8 µM
same,TGI,[29],26.8 µM
same,GI50,[30],1.94 µM
same,TGI,[30],3.61 µM
same,GI50,[31],4.17 µM
same,TGI,[31],12.8 µM
same,GI50,[32],3.8 µM
same,TGI,[32],10.2 µM
same,GI50,[33],3.01 µM
same,TGI,[33],6.71 µM
same,GI50,[34],2.19 µM
same,TGI,[34],3.64 µM
same,GI50,[35],13.7 µM
same,TGI,[35],26.7 µM
same,GI50,[36],3.6 µM
same,TGI,[36],11.5 µM
same,GI50,[37],3.97 µM
same,TGI,[37],11.5 µM
same,GI50,[38],2.21 µM
same,TGI,[38],5.06 µM
same,GI50,[39],4.29 µM
same,TGI,[39],15.8 µM
same,GI50,[40],13.3 µM
same,TGI,[40],26.1 µM
same,GI50,[41],11.6 µM
same,TGI,[41],23.8 µM
same,GI50,[42],3.24 µM
same,TGI,[42],11.9 µM
same,GI50,[43],4.47 µM
same,TGI,[43],15.1 µM
same,GI50,[44],13.4 µM
same,TGI,[44],26.3 µM
same,GI50,[45],1.88 µM
same,TGI,[45],3.6 µM
same,GI50,[46],3.72 µM
same,TGI,[46],11.2 µM
same,GI50,[47],1.83 µM
same,TGI,[47],3.55 µM
same,GI50,[48],3.3 µM
same,TGI,[48],12.2 µM
same,GI50,[49],5.47 µM
same,TGI,[49],16.6 µM
same,GI50,[50],3.4 µM
same,TGI,[50],12.7 µM
same,GI50,[51],1.95 µM
same,TGI,[51],3.74 µM
same,GI50,[52],3.89 µM
same,TGI,[52],13 µM
same,GI50,[53],2.08 µM
same,TGI,[53],3.96 µM
same,GI50,[54],2.98 µM
same,TGI,[54],9.2 µM
same,GI50,[55],1.88 µM
same,TGI,[55],3.47 µM
same,GI50,[56],10.9 µM
same,TGI,[56],22.9 µM
same,GI50,[57],5.5 µM
same,TGI,[57],17.6 µM
same,GI50,[58],10.7 µM
same,TGI,[58],22.6 µM
